We go through 59 compounds from patent publication US9663516B2, “Bicyclic-pyrimidinedione compounds” (MyoKardia, Inc., priority 2014, dated 2017).

The IC50 is the concentration at which inhibition is half-maximal.

Chain of bovine cardiac myosin (Q9BE39 whole entry): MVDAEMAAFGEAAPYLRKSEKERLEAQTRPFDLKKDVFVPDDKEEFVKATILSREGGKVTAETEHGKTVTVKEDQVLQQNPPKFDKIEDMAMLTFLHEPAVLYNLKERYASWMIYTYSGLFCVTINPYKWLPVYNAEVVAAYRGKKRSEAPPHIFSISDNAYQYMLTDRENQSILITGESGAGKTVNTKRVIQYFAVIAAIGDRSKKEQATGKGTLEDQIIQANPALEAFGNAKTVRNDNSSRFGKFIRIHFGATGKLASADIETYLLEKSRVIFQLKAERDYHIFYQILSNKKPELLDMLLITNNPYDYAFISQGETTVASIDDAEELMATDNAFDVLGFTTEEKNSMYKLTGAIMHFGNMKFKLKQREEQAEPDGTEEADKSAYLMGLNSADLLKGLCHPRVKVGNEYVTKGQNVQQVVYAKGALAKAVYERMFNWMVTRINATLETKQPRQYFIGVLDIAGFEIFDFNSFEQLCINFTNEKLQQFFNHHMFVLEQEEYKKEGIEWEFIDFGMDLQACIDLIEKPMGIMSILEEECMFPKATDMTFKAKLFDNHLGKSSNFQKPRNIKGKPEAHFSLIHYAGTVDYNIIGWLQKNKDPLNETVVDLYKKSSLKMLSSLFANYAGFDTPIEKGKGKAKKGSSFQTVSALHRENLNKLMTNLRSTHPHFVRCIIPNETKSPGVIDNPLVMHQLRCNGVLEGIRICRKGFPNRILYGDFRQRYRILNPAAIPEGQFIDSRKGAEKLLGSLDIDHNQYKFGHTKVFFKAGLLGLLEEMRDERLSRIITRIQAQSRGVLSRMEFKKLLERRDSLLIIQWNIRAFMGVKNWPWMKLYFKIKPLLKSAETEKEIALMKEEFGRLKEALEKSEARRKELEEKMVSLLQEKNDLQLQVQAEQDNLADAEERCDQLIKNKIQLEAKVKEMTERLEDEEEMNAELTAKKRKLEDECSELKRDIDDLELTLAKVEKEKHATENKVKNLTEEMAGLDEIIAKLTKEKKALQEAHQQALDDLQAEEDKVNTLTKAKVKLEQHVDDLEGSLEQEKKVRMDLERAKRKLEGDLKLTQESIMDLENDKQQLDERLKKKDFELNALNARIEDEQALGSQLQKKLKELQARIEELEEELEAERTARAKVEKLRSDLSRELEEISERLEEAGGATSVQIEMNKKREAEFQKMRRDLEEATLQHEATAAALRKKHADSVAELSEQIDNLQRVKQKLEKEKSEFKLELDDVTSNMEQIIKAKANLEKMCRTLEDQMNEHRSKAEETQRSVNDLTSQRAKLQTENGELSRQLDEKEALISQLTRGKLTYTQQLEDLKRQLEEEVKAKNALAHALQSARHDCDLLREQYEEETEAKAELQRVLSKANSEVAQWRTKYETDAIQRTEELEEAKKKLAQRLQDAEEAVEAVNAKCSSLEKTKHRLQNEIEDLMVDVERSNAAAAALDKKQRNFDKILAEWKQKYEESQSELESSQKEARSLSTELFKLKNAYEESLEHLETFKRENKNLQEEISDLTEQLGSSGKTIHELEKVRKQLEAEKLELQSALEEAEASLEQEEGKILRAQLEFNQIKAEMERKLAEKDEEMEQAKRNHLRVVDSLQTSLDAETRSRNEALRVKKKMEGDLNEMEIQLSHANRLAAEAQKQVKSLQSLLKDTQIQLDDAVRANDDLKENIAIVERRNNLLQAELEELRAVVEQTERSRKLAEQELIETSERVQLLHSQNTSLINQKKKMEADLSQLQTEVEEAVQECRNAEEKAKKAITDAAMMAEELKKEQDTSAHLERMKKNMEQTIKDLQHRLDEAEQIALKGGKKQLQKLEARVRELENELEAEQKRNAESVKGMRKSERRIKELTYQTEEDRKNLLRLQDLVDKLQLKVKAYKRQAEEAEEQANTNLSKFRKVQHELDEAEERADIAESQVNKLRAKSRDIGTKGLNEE
Chain of bovine cardiac myosin (P85100 whole entry partner): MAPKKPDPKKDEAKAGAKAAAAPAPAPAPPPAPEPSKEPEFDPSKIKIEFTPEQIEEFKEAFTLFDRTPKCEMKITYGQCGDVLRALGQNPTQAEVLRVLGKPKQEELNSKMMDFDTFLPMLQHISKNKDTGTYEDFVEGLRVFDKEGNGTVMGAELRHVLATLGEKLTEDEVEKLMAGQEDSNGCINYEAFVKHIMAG
Chain of bovine cardiac myosin (Q3SZE5 whole entry partner): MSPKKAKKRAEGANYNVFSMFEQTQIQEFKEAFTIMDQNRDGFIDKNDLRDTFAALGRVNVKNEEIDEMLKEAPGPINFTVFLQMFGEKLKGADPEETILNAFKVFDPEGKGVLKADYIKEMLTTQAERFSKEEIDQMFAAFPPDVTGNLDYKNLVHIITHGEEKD

The test has as its target bovine cardiac myosin (Bos taurus, UniProt Q9BE39). Put plainly: Myosin inhibition assay (PK/LDH-coupled ATPase, bovine cardiac myofibrils). It counts as biochemical. The conditions noted are these: calcium concentration giving 50% activation, pH 6.8, read-out: bcMF pCa_6 IC50. As for the experimental part:
Small molecule agents were assessed for their ability to inhibit the enzymatic activity of bovine cardiac myosin using a biochemical assay that couples the release of ADP (adenosine diphosphate) from cardiac myosin to an enzymatic coupling system consisting of pyruvate kinase and lactate dehydrogenase (PK/LDH) and monitoring the absorbance decrease of NADH (at 340 nm) as a function of time. PK converts ADP to ATP (adenosine triphosphate) by converting PEP (phosphoenolpyruvate) to pyruvate. Pyruvate is then converted to lactate by LDH by converting NADH (nicotinamide adenine dinucleotide) to NAD (oxidized nicotinamide adenine dinucleotide). […] Prior to testing small molecule agents, the bovine myofibrils were assessed for their calcium responsiveness and the calcium concentration that achieves a 50% activation of the myofibril system was chosen as the final condition for assessing the inhibitory activity of the small molecule agents. All enzymatic activity was measured in a buffered solution containing 12 mM PIPES (piperazine-N,N′-bis(2-ethanesulfonic acid), 2 mM magnesium chloride at pH 6.8 (PM12 buffer). Final assay conditions were 1 mg/mL of bovine cardiac myofibrils, 0.4 mM PK/LDH, 50 uM ATP, 0.1 mg/mL BSA (bovine serum albumin), 10 ppm antifoam, 2 mM BME, 0.5 mM NADH, 1.5 mM PEP at the desired free calcium concentration required to achieve 50% activation of the myofibrils.
A dilution series of compound was created in DMSO such that the final desired concentration of compound would be achieved in a volume of 30 μL with a fixed DMSO concentration of 3.3% (v/v). Typically 1 μL of the dilution series were added to 384 well plate to achieve an 10 point dose response. Following the addition of 14 μL of a solution containing bovine cardiac myofibrils, PK/LDH and a solution of calcium (that achieved 50% activation), the enzymatic reaction was started with the addition of 15 μL of a solution containing ATP, PEP and NADH. The reaction progress was followed in a PerkinElmer Envision plate reader at ambient temperature using clear bottom plates. The plate reader was configured to read absorbance at 340 nm in kinetics mode for 15 minutes. Data were recorded as the slope of the absorbance response to time. The slopes of the absorbance response as a function of time were normalized to slopes on the plate containing DMSO. This normalized rate was then plotted as a function of small molecule concentration and the data was fitted to a four-parameter fit using EXCEL XLfit. The IC50 is the concentration at which fifty percent of the total response is inhibited.
As to `CCn1c(=O)[nH]c2c(c1=O)CC[C@H](c1ccc(F)cc1F)N2` [Compound 16], the IC50 was 1 to 15 µM.
In the case of `CCn1c(=O)[nH]c2c(c1=O)CC[C@H](c1cccc(Cl)c1)N2` [Compound 11, (R)-7-(3-Chlorophenyl)-3-ethyl-5,6,7,8-tetrahydropyrido[2,3-d]pyrimidine-2,4(1H,3H)-dione] it was 1 to 15 µM; in that of `CCn1c(=O)[nH]c2c(c1=O)CC[C@H](c1cccc(F)c1F)N2` [Compound 58], greater than 15 µM.
Then `CC(C)n1c(=O)[nH]c2c(c1=O)C[C@@H](c1ccccc1)N2` (single isomer, unassigned) [Compound 8], with greater than 15 µM.
Consider `CC(C)n1c(=O)[nH]c2c(c1=O)CC[C@@](c1ccccc1)(C(F)F)N2` [Compound 112], for which the IC50 is less than 1 µM.
For the compound `C[C@]1(c2cccc(F)c2)CCc2c([nH]c(=O)n(CC(F)F)c2=O)N1` [Compound 136], the concentration for half-maximal inhibition (IC50) was less than 1 µM.
Consider `CC(C)n1c(=O)[nH]c2c(c1=O)CC[C@](C)(c1cc(F)ccc1F)N2` [Compound 115], for which the half-inhibitory concentration (IC50) was less than 1 µM.
Then `O=c1[nH]c2c(c(=O)n1-c1cccc(F)n1)CC[C@H](c1ccccc1)N2` [Compound 34], with 1 to 15 µM; and `O=c1[nH]c2c(c(=O)n1CC(F)(F)F)CC[C@H](c1ccccc1)N2` [Compound 63], with 1 to 15 µM; and `CC(C)n1c(=O)[nH]c2c(c1=O)CC[C@@H](c1ccc(F)c(F)c1)N2` [Compound 85], with greater than 15 µM.
In the case of `CC(C)n1c(=O)[nH]c2c(c1=O)C[C@@H](Cc1ccccc1)N2` [Compound 88] it was greater than 15 µM.
As for `Cc1ccccc1[C@@H]1CCc2c([nH]c(=O)n(C(C)C)c2=O)N1` [Compound 105], the IC50 was greater than 15 µM.
For the compound `Cn1c(=O)[nH]c2c(c1=O)CC[C@](C)(c1cccc(F)c1)N2` [Compound 126, (R)-7-(3-Fluorophenyl)-3,7-dimethyl-5,6,7,8-tetrahydropyrido[2,3-d]pyrimidine-2,4(1H,3H)-dione], the IC50 lay within 1 to 15 µM.
For the compound `O=c1[nH]c2c(c(=O)n1CC(F)F)CC[C@H](c1cccc(F)c1)N2` [Compound 24], the concentration for half-maximal inhibition (IC50) was 1 to 15 µM.
Take `CCn1c(=O)[nH]c2c(c1=O)CCC[C@@H](c1ccc(F)c(F)c1)N2` [Compound 100]: the IC50 is greater than 15 µM.
As for `O=c1[nH]c2c(c(=O)n1-c1cc(F)cc(F)c1)CC[C@H](c1cccc(F)c1)N2` [Compound 60], the IC50 lay in the range of 1 to 15 µM.
Then `COc1cccc([C@@H]2CCc3c([nH]c(=O)n(C(C)C)c3=O)N2)c1` [Compound 93], with greater than 15 µM; and `CC1(n2c(=O)[nH]c3c(c2=O)CC[C@H](C2CCC(F)(F)CC2)N3)CC1` [Compound 37], with less than 1 µM; and `CC(C)n1c(=O)[nH]c2c(c1=O)CC(F)(F)[C@@H](c1cccc(Cl)c1)N2` [Compound 130], with greater than 15 µM.
On to `O=c1[nH]c2c(c(=O)n1C1CC1)CC[C@H](c1ccccc1)N2` [Compound 90], for which the IC50 lay within 1 to 15 µM.
Regarding `CC(C)n1c(=O)[nH]c2c(c1=O)CC[C@H](C1CCOCC1)N2` [Compound 27], the 50% inhibitory concentration (IC50) lay in the range of 1 to 15 µM.
Consider `CCn1c(=O)[nH]c2c(c1=O)CC[C@](C)(c1cc(F)ccc1F)N2` [Compound 119], for which the IC50 fell in the range of 1 to 15 µM.
Regarding `O=c1[nH]c2c(c(=O)n1-c1cccc(F)n1)CC[C@H](C1CCC(F)(F)CC1)N2` [Compound 43], the IC50 is less than 1 µM.
In the case of `C[C@]1(c2cc(F)ccc2F)CCc2c([nH]c(=O)n(C3CCC3)c2=O)N1` [Compound 134], the half-maximal inhibitory concentration (IC50) was less than 1 µM.
In the case of `O=c1[nH]c2c(c(=O)n1-c1ccccc1)CC[C@H](c1cccc(F)c1)N2` [Compound 49] it was 1 to 15 µM; in that of `CC1(n2c(=O)[nH]c3c(c2=O)CC[C@H](c2cccc(F)c2)N3)CC1` [Compound 121], 1 to 15 µM; in that of `CC(C)n1c(=O)[nH]c2c(c1=O)C[C@H](Cc1ccccc1)N2` [Compound 87], greater than 15 µM.
As to `CCn1c(=O)[nH]c2c(c1=O)CC[C@H](c1ccccc1)N2` [Compound 64], the IC50 was greater than 15 µM.
Regarding `CC(C)n1c(=O)[nH]c2c(c1=O)CC[C@H](c1cc(F)cc(F)c1)N2` [Compound 77], the IC50 was in the range of 1 to 15 µM.
As to `CCCn1c(=O)[nH]c2c(c1=O)CC[C@H](C1CCC(F)(F)CC1)N2` [Compound 30], the concentration for half-maximal inhibition (IC50) was less than 1 µM.
As to `CCn1c(=O)[nH]c2c(c1=O)CC[C@@](c1ccccc1)(C(C)C)N2` [Compound 132], the 50% inhibitory concentration (IC50) was greater than 15 µM.
As for `O=c1[nH]c2c(c(=O)n1-c1cc(F)cc(F)c1)C[C@H](c1ccccc1)N2` [Compound 71], the IC50 was greater than 15 µM.
In the case of `O=c1[nH]c2c(c(=O)n1-c1cc(F)cc(F)c1)CC[C@H](C1CCC(O)CC1)N2` (some centres unmarked) [Compound 52] it was 1 to 15 µM; in that of `CC(C)n1c(=O)[nH]c2c(c1=O)C[C@H](c1ccccc1)N2` (single isomer, unassigned) [Compound 7], 1 to 15 µM.
On to `CC1(n2c(=O)[nH]c3c(c2=O)CC[C@@H](c2ccccc2F)N3)CC1` [Compound 113], for which the IC50 is greater than 15 µM.
As for `CCCn1c(=O)[nH]c2c(c1=O)CC[C@H](c1ccc(F)c(F)c1)N2` [Compound 97], the 50% inhibitory concentration (IC50) lay in the range of 1 to 15 µM.
In the case of `O=c1[nH]c2c(c(=O)n1-c1ccc(F)cn1)CC[C@H](C1CCC(F)(F)CC1)N2` [Compound 33], the 50% inhibitory concentration (IC50) is less than 1 µM.
Regarding `CCn1c(=O)[nH]c2c(c1=O)CC[C@@](c1ccccc1)(C(C)C)N2` [Compound 131], the IC50 fell in the range of 1 to 15 µM.
For the compound `CCn1c(=O)[nH]c2c(c1=O)CC[C@@H](c1ccc(F)c(F)c1)N2` [Compound 94], the 50% inhibitory concentration (IC50) was 1 to 15 µM.
As for `O=c1[nH]c2c(c(=O)n1C1CCOCC1)CC[C@H](c1ccccc1)N2` [Compound 32], the IC50 was 1 to 15 µM.
Take `O=c1[nH]c2c(c(=O)n1-c1ccccc1)C(O)C[C@H](c1ccc(F)cc1)N2` (stereo partly drawn) [Compound 95, (7R)-7-(4-Fluorophenyl)-5-hydroxy-3-phenyl-5,6,7,8-tetrahydropyrido[2,3-d]pyrimidine-2,4(1H,3H)-dione]: the IC50 was greater than 15 µM.
In the case of `CCn1c(=O)[nH]c2c(c1=O)CC[C@H](c1ccc(Cl)cc1)N2` [Compound 15], the IC50 fell in the range of 1 to 15 µM.
As for `O=c1[nH]c2c(c(=O)n1-c1ccccn1)CC[C@H](c1ccccc1)N2` [Compound 35], the concentration for half-maximal inhibition (IC50) lay in the range of 1 to 15 µM.
For `CCn1c(=O)[nH]c2c(c1=O)CC[C@@](c1ccccc1)(C1CCC1)N2` [Compound 145], the concentration for half-maximal inhibition (IC50) is less than 1 µM.
In the case of `O=c1[nH]c2c(c(=O)n1CC1CC1)CC[C@H](C1CCC(F)(F)CC1)N2` [Compound 19] it was 1 to 15 µM; in that of `CC(C)Cn1c(=O)[nH]c2c(c1=O)CC[C@H](C1CCC(F)(F)CC1)N2` [Compound 23], less than 1 µM; in that of `C[C@]1(c2cccc(F)c2)CCc2c([nH]c(=O)n(-c3ccccc3)c2=O)N1` [Compound 127], less than 1 µM.
For `CCn1c(=O)[nH]c2c(c1=O)CC[C@H](c1c(F)cccc1F)N2` [Compound 75], the IC50 is greater than 15 µM.
As to `[2H]C1([2H])C[C@H](c2ccc(F)c(F)c2)Nc2[nH]c(=O)n(C(C)C)c(=O)c21` [Compound 101, (7R)-7-(3,4-Difluorophenyl)-3-isopropyl-5,6,7,8-tetrahydropyrido[2,3-d]pyrimidine-2,4(1H,3H)-dione-5,5-d2], the IC50 was in the range of 1 to 15 µM.
`CCn1c(=O)[nH]c2c(c1=O)CC[C@H](c1ccccc1Cl)N2` [Compound 57]: the IC50 is 1 to 15 µM.
In the case of `CC[C@H](C)n1c(=O)[nH]c2c(c1=O)CC[C@H](C1CCC(F)(F)CC1)N2` [Compound 29] it was 1 to 15 µM.
As for `CC(C)[C@H]1CCc2c([nH]c(=O)n(-c3cc(F)cc(F)c3)c2=O)N1` [Compound 44], the IC50 is greater than 15 µM.
Regarding `CC(C)n1c(=O)[nH]c2c(c1=O)CC[C@H](c1cc(F)ccc1F)N2` [Compound 17], the 50% inhibitory concentration (IC50) was 1 to 15 µM.
For `CC(C)n1c(=O)[nH]c2c(c1=O)CC(F)(F)[C@H](c1cccc(Cl)c1)N2` [Compound 129], the IC50 is less than 1 µM.
With `Cc1cccc([C@H]2CCc3c([nH]c(=O)n(C(C)C)c3=O)N2)c1` [Compound 102], the 50% inhibitory concentration (IC50) is less than 1 µM.
For the compound `COc1ccc([C@H]2CCc3c([nH]c(=O)n(C(C)C)c3=O)N2)cn1` [Compound 59], the concentration for half-maximal inhibition (IC50) lay in the range of 1 to 15 µM.
In the case of `CC(C)n1c(=O)[nH]c2c(c1=O)C[C@@H](C)[C@H](c1ccccc1)N2` [Compound 91] it was greater than 15 µM; in that of `CC(C)n1c(=O)[nH]c2c(c1=O)CC[C@H](CC1CCOCC1)N2` [Compound 62], greater than 15 µM; in that of `O=c1[nH]c2c(c(=O)n1-c1ccccc1)CC[C@H](C1CCC(F)(F)CC1)N2` [Compound 47], less than 1 µM.
